Laboratory results as given in patent US20150328329A1, “LIGANDS THAT TARGET HCV-E2 BINDING SITES ON CD81 AND THERAPEUTIC METHODS USING THEM” (American University of Cairo, priority 2012, published 2015).

Columns and labels:
[1] = target: T1, recombinant CD81-LEL (GST tag) (Homo sapiens, UniProt P60033); test: Surface plasmon resonance (Biacore T200) binding of ligands to immobilized recombinant CD81-LEL; details: Table A; ligand 600 μM in PBS-0.05% Tween-80; CD81-LEL-GST on CM5 chip
T1 construct: the large extracellular loop of CD81 (CD81-LEL); gift of Dr. Shoshana Levy, Stanford University
T1 sequence (P60033 113-201 limits assumed): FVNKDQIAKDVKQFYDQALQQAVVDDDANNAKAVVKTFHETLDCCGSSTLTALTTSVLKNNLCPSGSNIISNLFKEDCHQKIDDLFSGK
Method: SPR analysis was performed using a Biacore T200 workstation (GE Healthcare, NJ, USA). A recombinant form of the CD81-LEL protein with a GST tag (generously provided by Dr. Shoshana Levy, Stanford University) was used to confirm, using an established experimental technique, the binding of several ligands to the protein. Briefly, 10 μM CD81-LEL-GST diluted into 10 mM Na-Acetate buffer pH 4.5 was immobilized for 15 min at a flow speed of 5 μl/min onto a CM5 sensor chip using amine-coupling (EDC-NHS). Approximately 20,000 RU of protein were immobilized on the chip. The ligands were prepared as 600 μM solutions in PBS-0.05% Tween-80 (the running buffer) and they were introduced to the protein using a pre-programmed 3 minute association and 1 minute dissociation interval.
The binding affinity of the most tightly bound ligand in the group selected for ligand conjugate design (Ligand 1) was estimated using data collected from a series of SPR binding experiments conducted at different ligand concentrations. To obtain the kinetic and affinity data needed to estimate the Kd, the original ligand was diluted serially with running buffer to produce seven different ligand concentrations: 1024 μM, […], 256 μM, 128 μM, 64 μM, 32 μM and 0 μM. Data were fitted using a monovalent binding model.
A total of 36 ligands were tested experimentally using surface Plasmon resonance (on a Biacore T200 instrument) to identify which of the molecules calculated to bind to Sites 1 and 2 on CD81 actually bind to a recombinant form of the protein (CD81-LEL). Twenty-six of the molecules provided a positive change in response units (RU) upon introduction to a chip containing the immobilized protein (Table A), indicating the ligands bound to the protein. The measured responses for the ligands that bound varied from 2.3 to 78.4 RU. Those ligands providing the largest responses tended to be molecules that were calculated to bind more deeply inside cavities in Site 1 (ligands 30930, 98026, 7436, 5069), Site 2 (ligands 127947, 38743) or Site 4 (ligands 78623, 16631).
Experimental analysis of ligand binding to recombinant CD81 LEL. Forty ligands calculated by AutoDock to bind to sites 1 and 2 on CD81-LEL were tested experimentally using surface Plasmon resonance as described in the Materials and Methods section. Ligand code numbers are those assigned by the National Cancer Institute. […] Because the binding experiments were performed by passing the same concentration of each ligand sequentially across the same protein coated chip using both techniques, the magnitude of the responses can be used to provide an approximate ranking of binding strength.

recombinant CD81-LEL = target: T2, recombinant CD81-LEL (Homo sapiens, UniProt P60033); test: SPR (Biacore T100) binding of additional ligands to immobilized CD81-LEL (Example 6); details: Table E, ligand 200 uM in PBS-1% DMSO
T2 construct: the large extracellular loop of CD81 (CD81-LEL); GST; His; Shoshana Levy Lab, Stanford (gift)
T2 sequence (P60033 113-201 limits assumed): T1 sequence (P60033 113-201 limits assumed)
Method: SPR analysis was performed using a Biacore T100 workstation (GE Healthcare, NJ, USA). A recombinant form of the CD81-LEL protein with a GST-tag (Shoshana Levy Lab-Stanford) was used to determine the binding affinities of the ligands in the above list. 10 uM CD81-LEL-His diluted into 10 mM sodium acetate buffer pH 4.5 was immobilized for […] at a flow speed of 5 ul/min onto a CM5 sensor chip using amine coupling (EDC-NHS). Approximately 20,000 RU of protein were immobilized on the chip. The ligands were prepared as 200 uM solutions in PBS-1% DMSO (the running buffer) and they were introduced to the protein using a pre-programmed 3 min association and 1 min dissociation interval. Ligands that bind have a positive RU (response units) number and the strength of binding to the CD81 protein is related to the magnitude of the RU number; the larger the number the more binding.

[2] = target: T3, native CD81 on Raji cells (Homo sapiens, UniProt P60033); test: Competition assay: inhibition of FITC-labeled JS-81 anti-CD81 antibody binding to native CD81 on live Raji cells (flow cytometry); format: cell-based
T3 construct: endogenous in cells; host or cells: Raji (human B cell line)
T3 sequence (P60033 1-236): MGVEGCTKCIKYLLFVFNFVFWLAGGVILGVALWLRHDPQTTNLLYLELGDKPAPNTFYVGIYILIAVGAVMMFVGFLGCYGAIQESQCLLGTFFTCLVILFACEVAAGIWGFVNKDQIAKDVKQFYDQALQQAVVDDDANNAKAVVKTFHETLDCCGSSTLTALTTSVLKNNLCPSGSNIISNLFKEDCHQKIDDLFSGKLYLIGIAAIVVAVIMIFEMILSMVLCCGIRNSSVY
Text: A subset of these ligands and some of those listed in the patent have been tested to identify those ligands that bind to the correct region of the CD81 protein and for binding to native CD81 on living cells (a Raji cell line). This assay tests three concentrations of the ligand to determine if the ligand is capable of inhibiting the binding of an antibody called JS-81. This antibody is known to bind to the region of the CD81 protein we have targeted. If the ligand decreases JS-81 binding as you increase the concentration of the ligand, it is 1) binding to native CD81 on the Raji cells and 2) it is binding to the correct region of the protein.
For antibody neutralization assay Raji cells were used, a human B cell line that expressed high amounts of CD81 on the surface (data not shown). Cells were grown in RPMI medium (10% FCS, 1% penicillin/streptomycin, 1% L-glutamine, 1% non-essential amino acids, 1% sodium pyruvate, pH 7.4, at 37° C. with 5% CO2). 2×10^5 cells were incubated with or without different concentrations (50 μM, 100 μM, 400 μM and 1 mM) of indicated inhibitor for 20 min at room temperature, subsequently 1 ul (16 ng/μl) of FITC-labeled anti CD81 antibody (BD Pharmingen, 551108) was added to the cells and incubated for 20 min (antibody titration was performed to obtain a working dilution range, data not shown). Cells were washed and analyzed by flow cytometry using fluorescence-activated cell sorting (FACS) (BD FACSCalibur, software: Cell Quest Pro). Mean Fluorescence Intensity MFI was calculated using Flowjo software (TreesStar, www.flowjo.com).

| SPR Response Units [1] [RU] | Binding (RU) (recombinant CD81-LEL) | Inhibition of JS-81 Binding (%) ([2]; 50 μM ligand) | Inhibition of JS-81 Binding (%) ([2]; 100 μM ligand) | Inhibition of JS-81 Binding (%) ([2]; 400 μM ligand) | SMILES |
| --- | --- | --- | --- | --- | --- |
| 7.8 |  |  |  |  | COc1cc(CCC(=O)O)on1 [Ligand 303800] |
|  | 4.9 |  |  |  | CC(C)Oc1ccc(C(=O)O)cc1 [Ligand 16646] |
|  | 10.2 | 0 | 12 | 26 | NC(=O)NC(=O)c1nccnc1C(=O)O [Ligand 117922] |
|  | 17.4 |  |  |  | N=C(N)Nc1ccc(NC(=N)N)cc1 [Ligand 20586] |
|  | 11.1 | 0 | 4 | 19 | Cc1ccc(-c2cc(C(=O)O)c3ccccc3n2)c(C)c1 [Ligand 25678] |
|  | 4.1 |  |  |  | CCCCCCC(C)OC(=O)c1ccccc1C(=O)O (stereo not shown) [Ligand 524615] |
|  | 11.6 | 0 | 0 | 19 | O=C(O)c1cc(O)ccc1/N=N/c1ccccc1 [Ligand 106863] |
|  | 13.1 | 0 | 0 | 24 | Cc1cc(C)c(N)c(C(=O)O)c1 [Ligand 90444] |
| 15.2 |  |  |  |  | O=C(O)CSc1nc2ccccc2s1 [Ligand 11891] |
| 10.6 |  |  |  |  | CC(C)CNC(=O)/C=C\C(=O)O [Ligand 55573] |
|  | 2.9 |  |  |  | CC1=CC(=O)CC(C)(C)C1(O)/C=C/C(C)=C/C(=O)O (stereo not shown) [Ligand 148832] |
|  | 7.2 |  |  |  | O=C(O)C(Cc1ccccc1-c1ccccc1)C(=O)O [Ligand 94914] |
| 12.1 |  |  |  |  | O=C(Nc1ccc(O)c(C(=O)O)c1)Oc1ccccc1 [Ligand 68971] |
|  | 9.3 |  |  |  | Cc1cc(N2CCN(C)CC2)n2nc(-c3ccc(Cl)cc3)nc2n1 [Ligand 252359] |
| 25 |  |  |  |  | COc1ccccc1/C=C(\C#N)C(=O)O [Ligand 638134] |
|  | 4.1 | 0 | 54 | 12 | O=C(O)/C=C\C(=O)Nc1cccc2cccnc12 [Ligand 144958] |
|  | 2.5 |  |  |  | CCNc1nc(Cl)nc(-c2cn(-c3ccccc3)c3ccccc23)n1 [Ligand 142446] |
|  | 4.2 |  |  |  | CCCCNCC1CCCO1 (stereo not shown) [Ligand 97538] |
|  | 9.2 |  |  |  | O=C(O)CCc1cccnc1 [Ligand 89720] |
|  | 2.6 |  |  |  | COc1cc(/N=N/c2ccccc2C(=O)O)ccc1O [Ligand 153172] |
|  | 5.8 |  |  |  | C=CCc1ccccc1OCC(=O)O [Ligand 60239] |

| SMILES | SPR Response Units [1] [RU] | Binding (RU) (recombinant CD81-LEL) | Inhibition of JS-81 Binding (%) ([2]; 50 μM ligand) | Inhibition of JS-81 Binding (%) ([2]; 100 μM ligand) | Inhibition of JS-81 Binding (%) ([2]; 400 μM ligand) |
| --- | --- | --- | --- | --- | --- |
| c1cncc(C2CCCCN2)c1 (stereo not shown) [Ligand 87504] |  | 57.9 | 0 | 6 | 20 |
